Laboratory results from PubChem BioAssay (NCI).
Several values for one entry are separate records, joined by “and”; a condition that tells them apart may be missing. Equal values may be shown once.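 Five concentrations, 48 hours, 96-well plates. The concentration for 50% growth inhibition is given as GI50. The concentration for full growth arrest is given as TGI.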

Columns and labels:
Assay in all cases: inhibition of tumour cell growth, NCI panel, 48 h
ACHN renal = test system: ACHN renal
BT-549 breast = test system: BT-549 breast
IGROV1 ovarian = test system: IGROV1 ovarian
MCF7 breast = test system: MCF7 breast
NCI-H23 lung = test system: NCI-H23 lung
NCI-H460 lung = test system: NCI-H460 lung
OVCAR-4 ovarian = test system: OVCAR-4 ovarian
OVCAR-8 ovarian = test system: OVCAR-8 ovarian
PC-3 prostate = test system: PC-3 prostate
SNB-75 CNS = test system: SNB-75 CNS

Row | SMILES | TGI (ACHN renal) [µM] | TGI (BT-549 breast) [µM] | TGI (IGROV1 ovarian) | TGI (MCF7 breast) [µM] | TGI (NCI-H23 lung) [µM] | TGI (NCI-H460 lung) [µM] | TGI (OVCAR-4 ovarian) [µM] | TGI (OVCAR-8 ovarian) [µM] | TGI (PC-3 prostate) [µM] | TGI (SNB-75 CNS) [µM] | GI50 (ACHN renal) [µM] | GI50 (IGROV1 ovarian) [µM] | GI50 (MCF7 breast) [µM] | GI50 (NCI-H23 lung) [µM] | GI50 (NCI-H460 lung) [µM] | GI50 (OVCAR-4 ovarian) [µM] | GI50 (OVCAR-8 ovarian) [µM] | GI50 (PC-3 prostate) [µM] | GI50 (SNB-75 CNS) [µM] | GI50 (BT-549 breast) [µM]
1 | N=C1CCCC1C(=S)SCCC(N)=O (stereo unspecified) | > 100 | > 100 | > 100 µM | > 100 | > 100 | > 100 | > 100 | > 100 | > 100 | > 100 |  |  |  |  |  |  |  |  |  | 
2 | [N-]=[N+]=CC(=O)CCC(N)C(=O)O (stereo unspecified) | > 250 | > 250 | 43 µM and > 134 µM | > 250 | > 215 | 147 | > 206 | > 218 | > 250 | 191 | 5.54 | 3.51 | 0.641 | 6.94 | 2.93 | 4.2 | 7.03 | 29.8 | 39.4 | 
3 | Cc1n[nH]c2ccccc2c1=O | > 100 | > 100 | > 100 µM | > 100 | > 100 | > 100 | > 100 | > 100 | > 100 | > 100 |  |  |  |  |  |  |  |  |  | 
4 | NC(N)=N/N=C\c1ccc(OCc2ccccc2)cc1 | 8.66 | 23 | 18.3 µM | 2.91 | 24.6 | 3.47 | 13.8 |  | 10.6 | 4.7 | 2.64 | 3.42 | 1.37 | 9.84 | 1.77 | 2.63 |  | 2.41 | 1.64 | 10.8
5 | COc1ccc2c(c1)C(=O)c1c-2c(OCCCN(C)C)nc2cc(Br)ccc12 | 2.73 | 28 | 26.9 µM | 13.7 | 24.6 | 7.57 | 5.17 | 6.95 | 7.78 | 4.44 | 1.29 |  | 2.32 | 11.3 | 2.54 | 1.96 | 2.63 | 3.04 | 1.57 | 13.5
6 | COc1cc(O)ccc1C(=S)SC | > 100 | > 100 | > 100 µM | > 100 | > 100 | > 100 | > 100 | > 100 | > 100 | > 100 |  |  |  |  |  |  |  |  |  | 
7 | COc1ccc(-c2ccc(OC)c(OC)c2OC)cc1 | > 100 | > 62.6 | > 100 µM | > 100 | > 100 | > 48 | > 100 | > 100 | > 100 | > 100 | 8 | 4.08 | 1.77 | 4.19 | 2.7 | 5.42 | 6.9 | 3.62 | 3.34 | 1.57
8 | C[C@@]1(F)[C@H](O)[C@@H](CO)O[C@H]1n1ccc(=O)[nH]c1=O | > 100 | > 100 | > 100 µM | > 100 | > 100 | > 100 | > 100 | > 100 | > 100 | > 100 | > 100 | > 100 | > 100 | > 100 | > 100 | > 100 | > 100 | > 100 | > 100 | > 100
